# According to paper PMC10072296, “A Novel CCK Receptor GPR173 Mediates Potentiation of GABAergic Inhibition” (The Journal of Neuroscience, 2023):
# Experiments:
# CCK2R = experiment: Cell surface binding assay, Flag-CCK2R; set-up: species or system human; details: transfected HEK293T cells; HHBS with 20 mM HEPES, pH 7.4, 30 min, room temperature; anti-HA/anti-Flag immunofluorescence, confocal; n = 33-40 cells, three independent experiments
# Method: (§1) We transfected HEK293T cells with pCDNA3.1(+)-Flag-GPCR (purchased from Public Protein/Plasmid Library or made in our laboratory based on a pCDNA3.1(+) backbone). […] After three washes with HHBS, cells were fixed in 4% paraformaldehyde (PFA) and 4% sucrose in PBS for 15 min at room temperature. Cells were blocked in 5% normal goat serum in PBS, and staining was performed in detergent-free conditions without cell permeabilization after three washes by PBS. We used primary antibody rabbit anti-HA (catalog #8146, Cell Signaling Technology), anti-GPR173 (catalog #PA5-50 976, Thermo Fisher Scientific), and mouse anti-Flag (catalog #3724, Cell Signaling Technology) to detect HA and Flag tags. Images were captured on a Leica SP8 confocal microscope. Images within each experiment were collected using identical laser power, offset, and gain.
# GPR173 = experiment: Cell surface binding assay, Flag-GPR173; set-up: species or system human; details: transfected HEK293T cells; HHBS with 20 mM HEPES, pH 7.4, 30 min, room temperature; Fanti-HA/Fanti-Flag, confocal; n = 33-40 cells, three independent experiments
# Method: as §1
# HTR1B = experiment: Cell surface binding assay, Flag-HTR1B; set-up: species or system human; details: transfected HEK293T cells (negative/background control); HHBS pH 7.4, 30 min, room temperature; confocal
# Method: as §1
# [1] = biological target: T1, GPR173 (CHO-GPR173 cells) (Homo sapiens, UniProt Q9NS66); experiment: Ca2+ imaging assay in CHO-GPR173 cells; format: cell-based
# T1 construct: expressed in transfected cells; host or cells: CHO cells, lentiviral infection (pLVX-puro-GPCR), puromycin selection, monoclonal line
# T1 sequence (Q9NS66 whole entry): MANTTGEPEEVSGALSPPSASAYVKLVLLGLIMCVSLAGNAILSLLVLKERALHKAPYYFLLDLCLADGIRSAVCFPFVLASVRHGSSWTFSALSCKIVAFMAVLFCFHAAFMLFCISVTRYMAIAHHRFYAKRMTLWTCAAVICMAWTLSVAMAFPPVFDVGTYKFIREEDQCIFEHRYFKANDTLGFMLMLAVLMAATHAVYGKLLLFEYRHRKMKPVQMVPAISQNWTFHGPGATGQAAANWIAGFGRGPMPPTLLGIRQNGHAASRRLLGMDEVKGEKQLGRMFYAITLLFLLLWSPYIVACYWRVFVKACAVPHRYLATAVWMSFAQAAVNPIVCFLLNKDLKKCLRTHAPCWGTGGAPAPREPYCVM
# Method: CHO and infected CHO cells (CHO-GPCRs) were cultivated at 37°C in a humidified atmosphere with 5% CO2 in DMEM/F-12 medium (Thermo Fisher Scientific) supplemented with 10% FBS (Natocor Industria Biológica).
# For Ca^2+ mobilization by a confocal microscope, ∼8 × 10^4 transfected cells were seeded in each well of an eight-well chambered cover glass (Thermo Fisher Scientific) the day before the Ca^2+ imaging assay. Then, 5 μM Fluo-8 (AAT Bioquest) dissolved in HHBS solution was incubated with the cells for 30 min in a cell incubator and 30 min at room temperature after removing the culture medium. These cells were washed three times with HHBS, and 360 µl HHBS was added. Subsequently, images of these cells were captured by a Zeiss 710 nonlinear optical confocal microscope before and after being treated with 10× compounds or HHBS solution.
# Cells were cultured at 37°C, and 5% CO2 in DMEM/F-12 medium (Thermo Fisher Scientific) containing 10% FBS (Natocor Industria Biológica) and washed with DMEM/F-12 medium once after overnight incubation.
# [2] = system: IPSCs of pyramidal neurons in auditory cortex (AC) brain slices; experiment: In vitro patch-clamp recording of laser-evoked IPSCs in pyramidal neurons; details: devazepide 60 nM in bath solution, brain slices from mDlx-DIO-ChR2-mCherry-injected CCK-Cre mice
# Excerpt: For brain slice recording experiments, we injected rAAV9-mDlx-DIO-ChR2-mCherry-WPRE-pA (5.18E + 12 vg/ml; BrainVTA) into the AC of CCK-Cre and PV-Cre mice.
# In the in vivo brain slice recording experiments, we adopted a protective cutting and recovery method to prepare acute brain slices from CCK-Cre, PV-Cre, CCK-KO, and CCK1R/2R-KO mice to achieve a higher success rate for patch clamping, as previously described ([Chen et al., 2019]). […]
# We performed whole-cell recordings with a MultiClamp 700B amplifier and Digital 1440A digitizer (Molecular Devices) targeting the AC in the brain slices in room temperature aCSF containing the following (in mM): 119 NaCl, 2.5 KCl, 1.25 NaH2PO4, 24 NaHCO3, 12.5 glucose, 2 CaCl2·4H2O, and 2 MgSO4·7H2O, ∼25°C). […] We recorded IPSCs in response to the laser stimulation (1 pulse per 15 s, 5 ms in duration) under voltage-clamp recording mode (holding at −60 mV to −50 mV) for 5 min as the baseline before and for 25 min after HFLS or LFLS. […] For the normalization of recorded IPSCs in the CCK-Cre, PV-Cre, CCK-KO, and CCK1R/2R-KO mice, we selected only patched neurons with IPSCs >35 pA.
Compound,Binding to Flag-CCK2R (Fanti-HA/Fanti-Flag) (CCK2R),Binding to Flag-GPR173 (GPR173),Binding to Flag-HTR1B (HTR1B),"Antagonistic action on GPR173, rank ([1]; CHO-GPR173, 10 nM CCK8s, compared with loxiglumide, YF476 and L365,260)","IC50 ([1]; read-out: IC50, antagonism of CCK8s-induced Ca2+ response)",Block of HFLS-induced potentiation of IPSCs [2]
HA-tagged CCK8ns: HA-(ε-Ahx)2-CCK variant probe of nonsulfated CCK8,significantly larger ratio of CCK ligand HA-tag signal to CCK2R Flag signal (Fanti-HA/Fanti-Flag) than that of the HA-(ε-Ahx)2 control group,not HA-tagged CCK4 or CCK8ns,No binding,–,–,–
CN1C(=O)[C@@H](NC(=O)c2cc3ccccc3[nH]2)N=C(c2ccccc2)c2ccccc21 [devazepide],–,–,–,highest antagonistic action on GPR173,12.3 nM,fully blocked the HFLS-induced potentiation of IPSCs
HA-tagged CCK8s: HA-(ε-Ahx)2-CCK variant probe of CCK8s,significantly larger ratio of CCK ligand HA-tag signal to CCK2R Flag signal (Fanti-HA/Fanti-Flag) than that of the HA-(ε-Ahx)2 control group,could only bind to HA-tagged CCK8,No binding,–,–,–
